Test results taken from patent US6271242A, “Method for treating cancer using a tyrosine protein kinase inhibitor” (Bristol-Myers Squibb Co., priority 1992, dated 2001).
Entries after “also recorded” stand apart in the source; their conditions may differ.

Assays:
[1] = system: PC12 cells; assay: NGF-induced neuronal differentiation (neurite outgrowth) of PC12 cells; assay type: cell-based; conditions: Rattus norvegicus, PC-12, 72 h; 50 ng/ml NGF, three days; read-out: IC50, block of appearance of neuritic processes in PC12 cells exposed to NGF
[2] = system: PC12 cells; assay: FGF-induced neurite formation of PC12 cells; assay type: cell-based, rat; conditions: concentrations as high as 300 nM; 50 ng/ml acidic and basic FGFs, three days
[3] = system: PC12 cells; assay: Proliferation of PC12 cells; assay type: cell-based, rat; conditions: submicromolar concentrations; data not shown
[4] = system: gp140^trk; assay type: cell-based, rat; conditions: 100 nM K252a, 100 ng/ml NGF, PC12 cells
[5] = system: PDGF receptor; assay: PDGF-induced tyrosine phosphorylation of PDGF receptor in NIH3T3 cells (Western blot); assay type: cell-based; conditions: 100 nM K252a, 100 ng/ml PDGF
[6] = system: human EGF receptor; assay: EGF-induced tyrosine phosphorylation of EGF receptor in F19-91 cells (Western blot); assay type: cell-based; conditions: 100 nM K252a, 100 ng/ml EGF
[7] = system: gp145^trkB; assay: BDNF-induced tyrosine phosphorylation of gp145^trkB in Z52-17 cells (Western blot); assay type: cell-based; conditions: 100 nM K252a, 100 ng/ml BDNF
[8] = system: gp145^trkC; assay: NT-3-induced tyrosine phosphorylation of gp145^trkC in R4-31 cells (Western blot); assay type: cell-based; conditions: 100 nM K252a, 100 ng/ml NT-3, R4-31 (RA-31) cells
[9] = system: NIH3T3 cells co-transfected with pDM69 (gp140^trk) and pLTRSNGF (NGF); assay: Focus formation of NIH3T3 cells co-transfected with gp140^trk and NGF plasmids; assay type: cell-based; conditions: 100 nM K252a
[10] = system: NIH3T3 cells co-transfected with pFRK44 (gp145^trkB) and pLL42 (BDNF); assay: Focus formation of NIH3T3 cells co-transfected with gp145^trkB and BDNF plasmids; assay type: cell-based; conditions: 100 nM K252a
[11] = system: NIH3T3 cells co-transfected with pFL20 (gp145^trkC) and pLL43 (NT-3); assay: Focus formation of NIH3T3 cells co-transfected with gp145^trkC and NT-3 plasmids; assay type: cell-based; conditions: 100 nM K252a; pFL20 (gp145^trkC) + pLL43 (NT-3)
[12] = system: Z99-541 cells; assay: Reversion of transformed phenotype, gp140^trk + NGF transformed NIH3T3 cells; assay type: cell-based
[13] = system: Z82-432 cells; assay: Reversion of transformed phenotype, gp145^trkB + BDNF transformed NIH3T3 cells; assay type: cell-based
[14] = system: Z82-711 cells; assay: Reversion of transformed phenotype, gp145^trkC + NT-3 transformed NIH3T3 cells; assay type: cell-based
[15] = system: pp60^v-src; assay: In vitro tyrosine protein kinase assay of pp60^v-src immunoprecipitates (C74-321 cells); assay type: biochemical; conditions: concentrations as high as 10 μM
[16] = system: pp60^v-src; assay: Tyrosine phosphorylation of pp60^v-src in C74-321 cells (Western blot); assay type: cell-based; conditions: concentrations as high as 1 μM
[17] = system: 106-632 cells; assay: Reversion of morphologic transformation, trk-transformed NIH3T3 cells; assay type: cell-based; conditions: 100 nM K252a, as little as 36 hours
[18] = system: B38-941 cells; assay: Reversion of morphologic transformation, trk5-transformed NIH3T3 cells; assay type: cell-based; conditions: 100 nM K252a, as little as 36 hours
[19] = Morphology and toxicity, v-src-transformed NIH3T3 cells; assay type: cell-based; conditions: mouse, v-src transformed nih3t3 cells; v-src transformed cells, no signs of morphologic reversion; data not shown; read-out: concentration at which toxic effect appears
[20] = system: C74-321 cells; assay: as above; assay type: cell-based
[21] = Morphology and toxicity, v-fms-transformed NIH3T3 cells; assay type: cell-based; conditions: mouse, v-fms transformed nih3t3 cells; v-fms transformed cells, no signs of morphologic reversion; data not shown; read-out: concentration at which toxic effect appears
[22] = system: C51-642 cells; assay: as above; assay type: cell-based
[23] = system: NIH3T3 cells; assay: Toxicity and growth of untransfected NIH3T3 and NIH3T3-derived cells

COC(=O)[C@@]1(O)C[C@H]2O[C@]1(C)n1c3ccccc3c3c4c(c5c6ccccc6n2c5c31)C(=O)NC4 (single isomer, unassigned) [K252a, (8R*,9S*,11S*)-(-)-9-hydroxy-9-methoxycarbonyl-8-methyl-2,3,9,10-tetrahydro-8,11-epoxy-1H,8H,11H-2,7b,11a-triazadibenzo(a,g) cycloocta(c,d,e)triinden-1-one]
IC50 [1]: ~40 nM | effect on induction of neurite formation by FGF [2]: no detectable effect | inhibitory effect on proliferation of PC12 cells [3]: did not have a significant inhibitory effect | NGF-induced phosphorylation of gp140^trk on tyrosine residues [4]: completely abolished | phosphorylation on tyrosine residues of the PDGF receptor [5]: no effect | phosphorylation on tyrosine residues of the EGF receptor [6]: no effect | phosphorylation on tyrosine residues of ligand-activated gp145^trkB [7]: completely abolished | phosphorylation on tyrosine residues of ligand-activated gp145^trkC [8]: completely abolished | Transforming Activity [9]: 0 Foci per 10^5 cells | Transforming Activity [10]: 0 Foci per 10^5 cells | Transforming Activity [11]: 0 Foci per 10^5 cells | reversion of transformed phenotype ([12]; 30 nM K252a, data not shown): much more limited effect | reversion of transformed phenotype ([12]; 100 nM K252a, 2 to 4 days): completely reverted | reversion of transformed phenotype ([13]; 30 nM K252a, data not shown): much more limited effect | reversion of transformed phenotype ([13]; 100 nM K252a, 2 to 4 days): completely reverted | reversion of transformed phenotype ([14]; 30 nM K252a, data not shown): much more limited effect | reversion of transformed phenotype ([14]; 100 nM K252a, 2 to 4 days): completely reverted | inhibitory effect on catalytic activity of pp60^v-src [15]: did not have any significant inhibitory effect | inhibitory effect on levels of tyrosine phosphorylation of pp60^v-src [16]: did not have any inhibitory effect | reversion of transformed phenotype [17]: completely reverted | reversion of transformed phenotype [18]: completely reverted | MCC [19]: ~1000 nM | effect on morphology of v-src transformed cells [20]: no effect | effect on transformed phenotype of v-src cells ([20]; concentrations as high as 1 μM): no effect | MCC [21]: ~1000 nM | effect on morphology of v-fms transformed cells [22]: no effect | effect on transformed phenotype of v-fms cells ([22]; concentrations as high as 1 μM): no effect | effect on growth properties / proliferation rate of the cells ([23]; 300 nM or lower): not observed; also recorded: no significant effect | detectable toxic effects ([23]; concentrations as high as 300 nM, NIH3T3-derived cells): nor elicit any detectable toxic effects | toxicity to cells ([23]; micromolar concentrations, particularly untransfected NIH3T3 cells, data not shown): considerably toxic
